6 compounds from ChEMBL document CHEMBL1151519, “Xanthene derived potent nonpeptidic inhibitors of recombinant human calpain I” (Bioorg Med Chem Lett, 1996) can be followed below.

In one test the target is T1, Calpain-1 catalytic subunit (Homo sapiens) (UniProt P07384).
T1 sequence (whole entry): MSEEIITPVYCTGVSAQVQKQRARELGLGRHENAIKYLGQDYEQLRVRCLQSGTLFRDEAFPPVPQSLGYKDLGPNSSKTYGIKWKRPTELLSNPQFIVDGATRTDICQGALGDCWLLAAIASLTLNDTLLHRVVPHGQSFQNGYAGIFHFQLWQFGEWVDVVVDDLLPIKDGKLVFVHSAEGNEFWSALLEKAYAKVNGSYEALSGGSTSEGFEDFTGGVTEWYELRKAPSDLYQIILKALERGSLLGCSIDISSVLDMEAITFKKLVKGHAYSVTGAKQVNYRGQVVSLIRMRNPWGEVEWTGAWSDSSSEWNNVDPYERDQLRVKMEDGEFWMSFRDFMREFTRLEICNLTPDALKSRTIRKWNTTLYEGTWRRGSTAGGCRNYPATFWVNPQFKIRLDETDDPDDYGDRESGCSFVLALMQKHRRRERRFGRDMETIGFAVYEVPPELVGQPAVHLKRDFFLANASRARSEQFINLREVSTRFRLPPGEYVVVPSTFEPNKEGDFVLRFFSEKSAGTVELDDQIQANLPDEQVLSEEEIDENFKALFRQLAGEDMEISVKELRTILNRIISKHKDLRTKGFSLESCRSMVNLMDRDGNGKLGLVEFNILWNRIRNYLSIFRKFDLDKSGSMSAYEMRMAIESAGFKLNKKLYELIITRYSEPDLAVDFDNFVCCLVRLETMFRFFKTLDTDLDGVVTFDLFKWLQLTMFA
As to the kind of experiment: (§1) Inhibitory activity of compound against recombinant human Calpain 1.
Turning to `CC(C)C[C@H](CC(=O)C1c2ccccc2Oc2ccccc21)C(=O)NC(Cc1ccccc1)C(=O)CF` (stereo partly specified), the K obs / 1 came out at 76000 M⁻¹ s⁻¹.

The target of a further test is T2, Calpain-1 catalytic subunit (Homo sapiens, UniProt P07384).
T2 sequence (P07384 whole entry): T1 sequence (whole entry)
Described as §1.
As usually defined, the IC50 is the concentration needed to halve the response being measured. For the compound `CCNC(=O)C(CC(C)C)NC(=O)[C@@H](CC(=O)C1c2ccccc2Oc2ccccc21)CC(C)C` (stereo partly specified), the IC50 was determined as 130 nM.

In the case of `CC(C)C[C@H](CC(=O)C1c2ccccc2Oc2ccccc21)C(=O)N[C@H](C=O)CC(C)C`, the IC50 stood at 25 nM. Turning to `CC(C)C[C@H](CC(=O)C(c1ccccc1)c1ccccc1)C(=O)N[C@H](C=O)CC(C)C`, the IC50 amounted to 50 nM. On the same count and under the same terms, the same measure for `CCNC(=O)C(=O)C(CC)NC(=O)[C@H](CC(C)C)NC(=O)OCc1ccccc1` (stereo partly specified): 240 nM; for `CC(C)C[C@H](CC(=O)CCCCc1ccccc1)C(=O)N[C@H](C=O)CC(C)C`: 138 nM.
